{
  "source": "paper PMC3230693",
  "about": "(Nature structural & molecular biology, 2011)",
  "key": {"[1]": {"target": "WT tEGFR (human EGFR aa 25–1022) (Homo sapiens, UniProt P00533)", "assay": "Radiometric kinase inhibition assay, WT tEGFR", "assay_type": "biochemical"}, "[2]": {"target": "Δ746–750 tEGFR (Homo sapiens, UniProt P00533, DEL746-750)"}, "[3]": {"target": "L858R tEGFR (Homo sapiens, UniProt P00533, L858R)"}, "[4]": {"tested_on": "HEK293 GnTi− cells", "assay": "Expression of mutant tEGFRs in transfected cells", "assay_type": "cell-based, human", "conditions": "50 nM in culture medium; western blot"}, "[5]": {"target": "L858R I706Q tEGFR (human)"}, "[6]": {"tested_on": "EGFR catalytic domain", "conditions": "cited from earlier work"}, "[7]": {"target": "Δ(746–750) I706Q tEGFR (human)"}},
  "data": [
    {"molecule": "Nc1ncnc2c1ncn2[C@@H]1O[C@H](COP(=O)(O)OP(=O)(O)NP(=O)(O)O)[C@@H](O)[C@H]1O", "note": "[AMP-PNP]", "values": [
      {"measurement": "IC50", "setting": "[1]; WT tEGFR–EGF, 10 µM ATP, range stated for WT and mutant tEGFRs", "result": "80 to 200", "unit": "µM"},
      {"measurement": "Ki", "setting": "[1]; read-out: Ki (deduced from IC50, ATP concentration and ATP Kmapp), WT tEGFR–EGF", "result": "21 ± 5", "unit": "µM"},
      {"measurement": "Ki fold higher compared with WT", "setting": "[2]; Δ746–750 vs WT tEGFR, range stated for both mutants", "result": "5–8 fold"},
      {"measurement": "IC50", "setting": "[2]; Δ(746–750) tEGFR–EGF, 10 µM ATP, range stated for WT and mutant tEGFRs", "result": "80 to 200", "unit": "µM"},
      {"measurement": "IC50", "setting": "[3]; L858R tEGFR–EGF, 10 µM ATP, range stated for WT and mutant tEGFRs", "result": "80 to 200", "unit": "µM"},
      {"measurement": "Ki fold higher compared with WT", "setting": "[3]; L858R vs WT tEGFR, range stated for both mutants", "result": "5–8 fold"}
    ]},
    {"molecule": "C#Cc1cccc(Nc2ncnc3cc(OCCOC)c(OCCOC)cc23)c1", "note": "[erlotinib]", "values": [
      {"measurement": "expression of L858R and Δ746–750 tEGFRs", "setting": "[4]", "result": "enhanced expression"}
    ]},
    {"molecule": "L858R I706Q tEGFR (receptor)", "values": [
      {"measurement": "kinase rate in the presence of EGF, against the single mutant L858R tEGFR", "setting": "[5]", "result": 30, "unit": "fold lower"}
    ]},
    {"molecule": "Segment 1 of MIG6: MIG6 segment 1 (30mer, residues 334–364) peptide made by solid-phase peptide synthesis (SPKSLPSYLNGVMPPTQSFAPDPKYVSSKAL)", "values": [
      {"measurement": "IC50", "setting": "[1]; EGF–bound WT tEGFR, phosphorylation of biotinylated substrate peptide", "result": 100, "unit": "µM"},
      {"measurement": "inhibition by MIG6 segment 1", "setting": "[2]; Δ(746–750) tEGFR–EGF, up to 100 µM", "result": "essentially resistant to inhibition"},
      {"measurement": "inhibition by MIG6 segment 1", "setting": "[3]; L858R tEGFR–EGF, up to 100 µM", "result": "essentially resistant to inhibition"},
      {"measurement": "affinity, fold weaker relative to segment 1+2", "setting": "[6]", "result": "~ 100 fold"}
    ]},
    {"molecule": "Δ(746–750) I706Q tEGFR (receptor)", "values": [
      {"measurement": "kinase rate of the EGF–bound form, against Δ746–750 tEGFR", "setting": "[7]", "result": 5, "unit": "fold lower"}
    ]}
  ]
}
